According to patent publication US9315522B2, “Antibacterial compounds” (JANSSEN SCIENCES IRELAND UC, priority 2012, dated 2016):
≈ marks a conversion by molar mass, not a printed value.

Assays:
[1] = tested on: S. aureus strain ATCC 29213; test: In vivo efficacy, peritonitis model of S. aureus infection; conditions: female Swiss albino mice, IP infection, inoculum 8.9 log10, PO, QD, Sol 20% CD + 1HCl, 3 days post-infection
From the text: The concept of studying the in vivo effect of an antibacterial compound by treating intraperitoneally infected mice was introduced in 1911 for optochin against pneumococci (Morgenroth and Levy, 1911). The popularity of the model comes from the ease of its use with short-duration experiments, reproducible infections and simple end-points.
Methicillin-sensitive S. aureus strain ATCC 29213 was used to infect female Swiss albino mice. A Brain Heart Infusion (BHI) broth bacterial culture was inoculated the day before infection, incubated at 37° C. overnight and diluted in fresh BHI broth to the desired concentration. Intraperitoneal (i.p.) injection of ˜5×10^9 colony forming units (CFU) was performed in either of the lateral lower quadrants of the abdomen. After inoculation, mice were kept in their cages under daily observation for development of signs of infection or death. For the treatment of mice, the p.o. route was used and each mouse was treated individually by gavage. Example of Cpd No. 48 was formulated as a 20% HP-β-cyclodextrin and example of Cpd No. 38 was formulated as a water/Tween-20 suspension. The parameter used for monitoring the course of infection and the effect of treatment was death or survival of the animals over 3 days post-infection. As death could also be due to toxic side effects, a non-infected control group of 3 mice, treated with the highest dose of the compound tested, was included.

[2] = In vivo pharmacokinetic and oral bioavailability in mouse; set-up: species or system male Swiss mice
Method: The in vivo pharmacokinetics and oral bioavailability of the compound of the examples were/are investigated in male Swiss mice (fed) following single intravenous (i.v.) bolus and oral (p.o.) administration. For the i.v. and p.o. solution formulations, the compound was/is dissolved in a 20% HP-β-CD solution. The pH of the formulations was/is around pH 4. All i.v. formulations were isotonic.

S. aureus = test: Antibacterial susceptibility testing, IC90 determination with 10% human serum (STA + 10% HS); format: cell-based, Staphylococcus aureus; conditions: Staphylococcus aureus, human serum at final concentration of 10%, read-out: STA + 10% HS (361.169) IC90
How it was run: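 Broth microdilution in Mueller-Hinton broth with 10% human serum, 5×10^5 CFU/ml S. aureus, two-fold compound dilutions (typically 63 to 0.49 μM), 1.25% DMSO, 16-20 h at 35° C. Growth read fluorometrically with resazurin (ex 540/em 590 nm); IC90 in μg/ml is the 90% growth-inhibitory concentration.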

[3] = Cytotoxicity MTT assay (HELAM); format: cell-based, Human; conditions: human, HelaM cells, read-out: HELAM (222.125) CC50
How it was run: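 HelaM cells exposed 72 h at 37° C to serial dilutions, typically 25 to 0.8 μM, in 0.5% DMSO. MTT formazan dissolved in 2-propanol, absorbance at 540 nm minus 690 nm; CC50 is concentration halving viability.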

[4] = Thermodynamic solubility (pH solubility profiling); format: physicochemical; conditions: thermodynamic from solid
Method: The pH solubility profiling was carried out at ambient temperature for a period of 4 days. A saturation solubility study was carried out in order to determine maximum solubility in a particular buffer solution. The compound was added to respective buffer solution until saturation point is reached. This was followed by shaking the flask for 4 days at ambient temperature. After 4 days, the solutions were filtered and injected on UPLC and the concentration was determined using a generic HPLC method.

[5] = tested on: Staphylococcus aureus ATCC 29213; test: Antibacterial susceptibility testing, IC90 determination (STA); format: cell-based; conditions: Staphylococcus aureus, ATCC29213, Staphylococcus aureus ATCC 29213, broth microdilution, resazurin; read-out: STA (361.159) IC90
How it was run: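 S. aureus ATCC 29213 tested by broth microdilution in Mueller-Hinton broth, 5×10^5 CFU/ml, two-fold compound dilutions typically 63 to 0.49 μM, 1.25% DMSO, 16-20 h at 35° C. Growth read fluorometrically with resazurin (ex 540/em 590 nm); IC90 in μg/ml is 90% growth-inhibitory concentration.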

[6] = male, Swiss, plasma, iv, 2.5 mg/kg, 20% HP-β-cyclodextrin
[7] = male, Swiss, plasma, po, 10 mg/kg, 20% HP-β-cyclodextrin

With `O=C1CNCc2cc(/C=C/C(=O)N3CC4C=C(c5nccs5)CC4C3)cnc2N1` (stereo not drawn) [compound 48] the “% Survival” value ([1]; 1 mpk) was 57%, the “% Survival” value ([1]; 5 mpk) was 100% and the Vdz ([2]; i.v., 2.5 mg/kg, 20% HP-β-cyclodextrin) was 2.8 L/kg. It also gave an AUC(0-inf) [2, 6] of 1600 ng·h/mL, a C0 [2, 6] of 4560 ng/mL and a half-life ([2]; male, Swiss, plasma, iv, 2.5 mg/kg, 20% HP-β-cyclodextrin, read-out: Half life (t1/2) (converted)) of 1.2 h. For the same compound, the clearance ([2]; male, Swiss, plasma, iv, 2.5 mg/kg, 20% HP-β-cyclodextrin, read-out: Plasma clearance Cl (converted)) was 26.7 mL/min/kg, the AUC(0-inf) [2, 7] was 2050 ng·h/mL and the Cmax [2, 7] was 483 ng/mL. It also gave a Tmax [2, 7] of 1.3 h, a bioavailability ([2]; male, Swiss, plasma, po, p.o. 10 mg/kg vs i.v. 2.5 mg/kg) of 32% and an IC90 (S. aureus) of 0.21 µg/mL. For the same compound, the CC50 at 72 h [3] was greater than 10.2 µg/mL, the solubility thermodynamic at 4 days ([4]; aqueous buffer, Buffer pH 4, ambient temperature) was 440 µg/mL (≈ 1.08 mM) and the solubility thermodynamic at 4 days ([4]; aqueous buffer, Buffer pH 7.4, ambient temperature) was greater than 1220 µg/mL. For the same compound, the solubility thermodynamic at 4 days ([4]; aqueous with cosolvent or surfactant or cyclodextrin, 10% HP-β-CD buffer pH 4, ambient temperature) was greater than 2470 µg/mL, the solubility thermodynamic at 4 days ([4]; aqueous with cosolvent or surfactant or cyclodextrin, 10% HP-β-CD buffer pH 7.4, ambient temperature) was greater than 1380 µg/mL and the solubility thermodynamic at 4 days ([4]; aqueous with cosolvent or surfactant or cyclodextrin, 20% HP-β-CD buffer pH 4, ambient temperature) was greater than 4720 µg/mL. The solubility thermodynamic at 4 days ([4]; aqueous with cosolvent or surfactant or cyclodextrin, 20% HP-β-CD buffer pH 7.4, ambient temperature) was greater than 2410 µg/mL, the solubility thermodynamic at 4 days ([4]; pH 2, simulated gastric fluid, 0.01N HCl, ambient temperature) was greater than 2560 µg/mL and the IC90 [5] was 0.24 µg/mL (≈ 0.000589 mM).
